In patent publication US11635429B2 (priority 2019, dated 2023):

System: anti-diacetoxyscirpenol monoclonal antibody secreted by hybridoma cell strain DAS5G11E7
Assay type: binding, mouse

Compound	Cross reactivity [%]
3-acetyldeoxynivalenol [3-acetyl-DON]	<0.01
CC1=CC2O[C@@H]3[C@H](O)C[C@](C)(C2(CO)C(O)C1=O)[C@]31CO1 (stereo partly shown) [DON, vomitoxin]	<0.01
C[C@@H]1Cc2c(Cl)cc(C(=O)N[C@@H](Cc3ccccc3)C(=O)O)c(O)c2C(=O)O1 [OTA, ochratoxin]	<0.01
HT-2 toxin	<0.01
